# Earlier results, collected in patent publication US20200236944A1, “DIURON-CONTAINING FRUIT THINNING AGENT” (ADAMA AGAN LTD., priority 2017, published 2020).
# Columns and labels:
# orange trees = settings: 2500 ppm diuron
# peach leaves = settings: 100 ppm diuron
compound,measurement,setting,value
"CN(C)C(=O)Nc1ccc(Cl)c(Cl)c1 [diuron, 3-(3,4-dichlorophenyl)-1,1-dimethylurea]",Fruiting of orange trees,orange trees,partially prevent the fruiting
same,Photosynthesis rate for peaches,peach leaves,long-lasting and thus undesirably low
